Data from patent US11052087B2, “Anti-HIV compounds” (priority 2018, dated 2021).
pEC50: −log10 of the molar value.

Columns and labels:
[1] = system: HIV-1 (IIIB) in MT-4 cells; assay: MT-4 HIV Assay; type: cell-based; conditions: Human immunodeficiency virus 1, IIIB, MT4, 120 h
Protocol: Compounds were tested in a high-throughput 384-well assay format for their ability to inhibit the replication of HIV-1 (IIIB) in MT-4 cells. Compounds were serially diluted (1:3) in DMSO on 384-well polypropylene plates and further diluted 200-fold into complete RPMI media (10% FBS, 1% P/S) using the Biotek Micro Flow and Agilent ECHO acoustic dispenser. Each plate contained up to 8 test compounds, with negative (No Drug Control) and 5 μM AZT positive controls. MT-4 cells were pre-infected with 10 μL of either RPMI (mock-infected) or a fresh 1:250 dilution of an HIV-1 (IIIB) concentrated virus stock. Infected and uninfected MT-4 cells were further diluted in complete RPMI media and added to each plate using a Micro Flow dispenser. After 5 days incubation in a humidified and temperature controlled incubator (37° C.), Cell Titer Glo (Promega) was added to the assay plates to quantify the amount of luciferase. EC50 values were defined as the compound concentration that causes a 50% decrease in luminescence signal, and were calculated using a sigmoidal dose-response model to generate curve fits.

Rat PK = type: in vivo; conditions: compound 14 oral solution, 75 mg-eq/kg dose group, male SD rats, LC/MS/MS
Protocol: Compound 14 was formulated in a solution formulation (84% 10 mM HCl; 15% 2-Hydroxypropyl-β-Cyclodextrin; 1% Dimethyl sulfoxide pH 2.0) and administered orally at 2.5 and 75 mg-eq/kg to a dosing groups consisting of three male SD rats. At dosing, the animals weighed between 270 and 350 g. […] Trace amounts of compound 14 were detected in plasma in the 75 mg-eq/kg dose group.

COC(=O)N[C@H](C(=O)N[C@@H](Cc1ccc(C#Cc2cnc(N3CC4CCC(C3)N4C3COC3)nc2)cc1)[C@H](CN(Cc1c(F)cc(-c2ccn(C(F)F)n2)cc1F)NC(=O)[C@@H](NC(=O)OC)C(C)(C)C(F)(F)F)OC(=O)CN(C)C(=O)[C@@H](N)Cc1ccccc1)C(C)(C)C(F)(F)F [Example 14, (2S,3S)-1-(1-(4-(1-(difluoromethyl)-1H-pyrazol-3-yl)-2,6-difluorobenzyl)-2-((S)-4,4,4-trifluoro-2-((methoxycarbonyl)amino)-3,3-dimethylbutanoyl)hydrazinyl)-4-(4-((2-(8-(oxetan-3-yl)-3,8-diazabicyclo[3.2.1]octan-3-yl)pyrimidin-5-yl)ethynyl)phenyl)-3-((S)-4,4,4-trifluoro-2-((methoxycarbonyl)amino)-3,3-dimethylbutanamido)butan-2-yl N-(L-phenylalanyl)-N-methylglycinate]
pEC50 [1]: 8.18
concentration of compound 14 in plasma (Rat PK): Trace amounts
